ChEMBL document CHEMBL1909046, “DrugMatrix in vitro pharmacology data”

Legend:
Glycine receptor = Glycine receptor (Rattus norvegicus, UniProt P22771+P24524+P07727+P20781); format: cell membranes, Wistar, Spinal cord, Membrane; also: in other assays of this panel Not Active means under 50% inhibition at 10 µM
Adenosine receptor A1 = target: T1, Adenosine receptor A1 (Homo sapiens, UniProt P30542); format: cell membranes, CHO, Membrane; settings: cho;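 also: radioligand binding assay at the adenosine A1 receptor, with DPCPX serving as the labelled ligand; in other assays of this panel Not Active means under 50% inhibition at 10 µM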
T1 sequence (P30542 whole entry): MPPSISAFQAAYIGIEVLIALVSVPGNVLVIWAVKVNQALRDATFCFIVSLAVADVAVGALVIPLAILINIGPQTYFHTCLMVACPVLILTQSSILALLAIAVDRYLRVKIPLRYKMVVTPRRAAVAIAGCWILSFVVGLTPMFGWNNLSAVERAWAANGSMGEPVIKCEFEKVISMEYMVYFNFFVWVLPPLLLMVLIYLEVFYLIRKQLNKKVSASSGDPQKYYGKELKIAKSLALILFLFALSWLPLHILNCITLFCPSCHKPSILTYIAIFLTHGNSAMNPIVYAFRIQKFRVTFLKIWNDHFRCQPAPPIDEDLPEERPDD

[1] = target: Mitogen-activated protein kinase 1 (Homo sapiens, UniProt P28482); experiment: DRUGMATRIX: Protein Serine/Threonine Kinase, ERK2 enzyme inhibition (substrate: Myelin Basic Protein); design: species or system Escherichia coli; settings: Not Active = under 50% inhibition at 10 µM
[2] = target: T2, Muscarinic acetylcholine receptor M5 (Homo sapiens, UniProt P08912); format: cell membranes, CHO-K1, Membrane; settings: cho-k1; also: in other assays of this panel Not Active means under 50% inhibition at 10 µM
T2 sequence (P08912 whole entry): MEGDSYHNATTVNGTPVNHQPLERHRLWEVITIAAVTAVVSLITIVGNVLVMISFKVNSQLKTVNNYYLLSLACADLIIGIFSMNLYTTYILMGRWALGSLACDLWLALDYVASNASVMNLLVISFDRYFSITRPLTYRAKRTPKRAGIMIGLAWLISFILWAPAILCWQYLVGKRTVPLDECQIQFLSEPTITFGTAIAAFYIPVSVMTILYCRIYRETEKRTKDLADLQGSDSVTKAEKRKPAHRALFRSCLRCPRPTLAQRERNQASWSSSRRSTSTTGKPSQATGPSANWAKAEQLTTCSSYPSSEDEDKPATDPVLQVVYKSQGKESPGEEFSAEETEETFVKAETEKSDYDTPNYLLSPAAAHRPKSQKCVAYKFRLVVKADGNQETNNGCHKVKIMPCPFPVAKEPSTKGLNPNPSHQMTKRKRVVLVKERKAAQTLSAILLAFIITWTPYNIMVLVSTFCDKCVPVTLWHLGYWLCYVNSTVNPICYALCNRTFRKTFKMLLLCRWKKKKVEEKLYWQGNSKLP

[3] = target: Matrix metalloproteinase-9 (Homo sapiens, UniProt P14780); experiment: biochemical; format: cell-based;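 also: inhibition of isolated MMP-9 enzyme activity toward a synthetic peptide substrate, from the DrugMatrix protease screening panel; in other assays of this panel Not Active means under 50% inhibition at 10 µM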
[4] = target: Protein kinase C alpha type (Homo sapiens, UniProt P17252); format: cell-based; settings: sf9
[5] = target: C-C chemokine receptor type 5 (Homo sapiens, UniProt P51681); format: cell membranes, Membrane; settings: hek293; also: in other assays of this panel Not Active means under 50% inhibition at 10 µM
C-C chemokine receptor type 5, sequence (P51681 whole entry): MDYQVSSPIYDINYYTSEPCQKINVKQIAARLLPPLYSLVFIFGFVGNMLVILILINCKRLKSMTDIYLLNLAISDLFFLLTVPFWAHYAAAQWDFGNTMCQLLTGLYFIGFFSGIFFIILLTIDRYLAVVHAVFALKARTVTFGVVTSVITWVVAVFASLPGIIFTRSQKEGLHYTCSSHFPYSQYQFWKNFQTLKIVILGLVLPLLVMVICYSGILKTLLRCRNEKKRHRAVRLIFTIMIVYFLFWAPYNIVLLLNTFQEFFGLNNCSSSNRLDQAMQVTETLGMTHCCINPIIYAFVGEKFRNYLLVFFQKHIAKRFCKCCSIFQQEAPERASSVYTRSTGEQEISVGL

Mitogen-activated protein kinase 1, sequence (P28482 whole entry): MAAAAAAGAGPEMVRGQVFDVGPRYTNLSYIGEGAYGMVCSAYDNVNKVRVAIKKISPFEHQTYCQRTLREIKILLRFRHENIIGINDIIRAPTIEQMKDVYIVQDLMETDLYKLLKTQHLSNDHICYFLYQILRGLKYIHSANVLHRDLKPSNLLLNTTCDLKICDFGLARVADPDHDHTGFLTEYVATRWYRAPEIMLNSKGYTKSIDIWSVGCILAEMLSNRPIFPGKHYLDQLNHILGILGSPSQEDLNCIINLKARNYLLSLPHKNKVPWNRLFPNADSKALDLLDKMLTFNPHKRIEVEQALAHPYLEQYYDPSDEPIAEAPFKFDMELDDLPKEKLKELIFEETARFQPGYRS
Matrix metalloproteinase-9, sequence (P14780 whole entry): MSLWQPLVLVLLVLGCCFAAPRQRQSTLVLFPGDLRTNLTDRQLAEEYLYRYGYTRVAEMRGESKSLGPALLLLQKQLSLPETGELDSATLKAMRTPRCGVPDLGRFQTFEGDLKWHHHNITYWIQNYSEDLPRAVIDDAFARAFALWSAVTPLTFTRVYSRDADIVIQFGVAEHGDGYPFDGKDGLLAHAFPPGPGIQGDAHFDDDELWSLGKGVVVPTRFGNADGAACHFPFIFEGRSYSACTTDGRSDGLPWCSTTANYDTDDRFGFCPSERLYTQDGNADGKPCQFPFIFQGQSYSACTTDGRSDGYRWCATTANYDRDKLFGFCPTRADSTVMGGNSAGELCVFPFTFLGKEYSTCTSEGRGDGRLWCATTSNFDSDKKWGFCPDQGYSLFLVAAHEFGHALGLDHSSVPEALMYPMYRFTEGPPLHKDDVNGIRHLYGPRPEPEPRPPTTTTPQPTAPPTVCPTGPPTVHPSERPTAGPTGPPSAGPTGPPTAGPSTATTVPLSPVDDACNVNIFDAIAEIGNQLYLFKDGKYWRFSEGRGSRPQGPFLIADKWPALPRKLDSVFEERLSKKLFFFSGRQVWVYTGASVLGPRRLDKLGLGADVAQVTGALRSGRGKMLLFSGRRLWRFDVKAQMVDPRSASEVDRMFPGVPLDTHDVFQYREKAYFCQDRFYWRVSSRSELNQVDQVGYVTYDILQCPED

Question: How did the IC50 (Glycine receptor) turn out when `O=C1C(CC[S+]([O-])c2ccccc2)C(=O)N(c2ccccc2)N1c1ccccc1` (stereo not given) [SULFINPYRAZONE] was run?
Answer: Its IC50 is “Not Active”.

Question: What about the IC50 (Adenosine receptor A1) of the same compound?
Answer: The IC50 was “Not Active”.

Question: And the IC50 [1]?
Answer: The IC50 was “Not Active”.

Question: What about the IC50 [2] of the same compound?
Answer: Its IC50 is “Not Active”.

Question: What about the IC50 [3] of the same compound?
Answer: Its IC50 is “Not Active”.

Question: What about the IC50 [4] of the same compound?
Answer: Its IC50 is “Not Active”.

Question: And the IC50 [5]?
Answer: Its IC50 is “Not Active”.

Question: Which results are given for `NC(=O)N1C(=O)/C(=C(\O)c2cccs2)c2cc(Cl)ccc21` [TENIDAP]?
Answer: IC50 (Glycine receptor): Not Active; IC50 (Adenosine receptor A1): Not Active; IC50 [1]: Not Active; IC50 [2]: Not Active; IC50 [3]: Not Active; IC50 [4]: Not Active; IC50 [5]: Not Active

Question: With `COc1cc2nc(N3CCN(C(=O)C4CCCO4)CC3)nc(N)c2cc1OC` (stereo not given) [TERAZOSIN] as the compound, how does the IC50 (Glycine receptor) read?
Answer: Its IC50 is “Not Active”.

Question: What about the IC50 (Adenosine receptor A1) of the same compound?
Answer: Its IC50 is “Not Active”.

Question: What about the IC50 [1] of the same compound?
Answer: The IC50 was “Not Active”.

Question: What about the IC50 [2] of the same compound?
Answer: Its IC50 is “Not Active”.

Question: And the IC50 [3]?
Answer: The IC50 was “Not Active”.

Question: And the IC50 [4]?
Answer: The IC50 was “Not Active”.

Question: What about the IC50 [5] of the same compound?
Answer: The IC50 was “Not Active”.

Question: Which IC50 (Glycine receptor) does the source give for `CN(C/C=C/C#CC(C)(C)C)Cc1cccc2ccccc12` [TERBINAFINE] here?
Answer: The IC50 was “Not Active”.

Question: What about the IC50 (Adenosine receptor A1) of the same compound?
Answer: The IC50 was “Not Active”.

Question: What about the IC50 [1] of the same compound?
Answer: The IC50 was “Not Active”.

Question: What about the IC50 [2] of the same compound?
Answer: The IC50 was “Not Active”.

Question: And the IC50 [3]?
Answer: Its IC50 is “Not Active”.

Question: What about the IC50 [4] of the same compound?
Answer: The IC50 was “Not Active”.

Question: And the IC50 [5]?
Answer: Its IC50 is “Not Active”.

Question: Which IC50 (Glycine receptor) does the source give for `CCCCNc1ccc(C(=O)OCCN(C)C)cc1` [TETRACAINE] here?
Answer: Its IC50 is “Not Active”.

Question: And the IC50 (Adenosine receptor A1)?
Answer: The IC50 was “Not Active”.

Question: What about the IC50 [1] of the same compound?
Answer: The IC50 was “Not Active”.

Question: What about the IC50 [2] of the same compound?
Answer: Its IC50 is “Not Active”.

Question: And the IC50 [3]?
Answer: The IC50 was “Not Active”.

Question: And the IC50 [4]?
Answer: The IC50 was “Not Active”.

Question: What about the IC50 [5] of the same compound?
Answer: The IC50 was “Not Active”.

Question: Which IC50 (Glycine receptor) does the source give for `CS(=O)(=O)c1ccc([C@@H](O)[C@@H](CO)NC(=O)C(Cl)Cl)cc1` [THIAMPHENICOL] here?
Answer: Its IC50 is “Not Active”.

Question: What about the IC50 (Adenosine receptor A1) of the same compound?
Answer: Its IC50 is “Not Active”.

Question: And the IC50 [1]?
Answer: Its IC50 is “Not Active”.

Question: And the IC50 [2]?
Answer: Its IC50 is “Not Active”.

Question: What about the IC50 [3] of the same compound?
Answer: Its IC50 is “Not Active”.

Question: And the IC50 [4]?
Answer: Its IC50 is “Not Active”.

Question: What about the IC50 [5] of the same compound?
Answer: Its IC50 is “Not Active”.

Question: What does the source list for `CCN(CC)CCNC(=O)c1cc(S(C)(=O)=O)ccc1OC` [TIAPRIDE]?
Answer: IC50 (Glycine receptor): Not Active; IC50 (Adenosine receptor A1): Not Active; IC50 [1]: Not Active; IC50 [2]: Not Active; IC50 [3]: Not Active; IC50 [4]: Not Active; IC50 [5]: Not Active

Question: Which IC50 (Glycine receptor) does the source give for `Clc1ccccc1CN1CCc2sccc2C1` [TICLOPIDINE] here?
Answer: The IC50 was “Not Active”.

Question: What about the IC50 (Adenosine receptor A1) of the same compound?
Answer: The IC50 was “Not Active”.

Question: And the IC50 [1]?
Answer: Its IC50 is “Not Active”.

Question: And the IC50 [2]?
Answer: Its IC50 is “Not Active”.

Question: What about the IC50 [3] of the same compound?
Answer: Its IC50 is “Not Active”.

Question: And the IC50 [4]?
Answer: Its IC50 is “Not Active”.

Question: And the IC50 [5]?
Answer: Its IC50 is “Not Active”.

Question: What does the source list for `NC1CCN(c2nc3c(cc2F)c(=O)c(C(=O)O)cn3-c2ccc(F)cc2F)C1` (stereo not given) [TOSUFLOXACIN]?
Answer: IC50 (Glycine receptor): Not Active; IC50 (Adenosine receptor A1): Not Active; IC50 [1]: Not Active; IC50 [2]: Not Active; IC50 [3]: Not Active; IC50 [4]: Not Active; IC50 [5]: Not Active

Question: How did the IC50 (Glycine receptor) turn out when `O=C(Nc1ccc(Br)cc1)c1cc(Br)cc(Br)c1O` [TRIBROMSALAN] was run?
Answer: Its IC50 is “Not Active”.

Question: And the IC50 (Adenosine receptor A1)?
Answer: The IC50 was “Not Active”.

Question: What about the IC50 ([1]; read-out: IC50) of the same compound?
Answer: The IC50 was 623 nM.

Question: And the IC50 [2]?
Answer: Its IC50 is “Not Active”.

Question: And the IC50 [3]?
Answer: The IC50 was “Not Active”.

Question: What about the IC50 [4] of the same compound?
Answer: The IC50 was “Not Active”.

Question: And the IC50 [5]?
Answer: Its IC50 is “Not Active”.

Question: How did the IC50 (Glycine receptor) turn out when `CC(c1cc2ccccc2s1)N(O)C(N)=O` (stereo not given) [ZILEUTON] was run?
Answer: The IC50 was “Not Active”.

Question: What about the IC50 (Adenosine receptor A1) of the same compound?
Answer: The IC50 was “Not Active”.

Question: What about the IC50 [1] of the same compound?
Answer: The IC50 was “Not Active”.

Question: And the IC50 [2]?
Answer: The IC50 was “Not Active”.

Question: And the IC50 [3]?
Answer: The IC50 was “Not Active”.

Question: And the IC50 [4]?
Answer: Its IC50 is “Not Active”.

Question: And the IC50 [5]?
Answer: Its IC50 is “Not Active”.

Question: MANGANESE CHLORIDE ANHYDROUS was tested. Which IC50 (Glycine receptor) did it give?
Answer: The IC50 was “Not Active”.

Question: And the Ki (Glycine receptor)?
Answer: The Ki was “Not Active”.

Question: And the IC50 (Adenosine receptor A1)?
Answer: The IC50 was “Not Active”.

Question: What about the Ki (Adenosine receptor A1) of the same compound?
Answer: Its Ki is “Not Active”.

Question: And the IC50 [1]?
Answer: The IC50 was “Not Active”.

Question: And the Ki [1]?
Answer: The Ki was “Not Active”.

Question: And the IC50 [2]?
Answer: Its IC50 is “Not Active”.

Question: What about the Ki [2] of the same compound?
Answer: The Ki was “Not Active”.

Question: What about the IC50 [3] of the same compound?
Answer: The IC50 was “Not Active”.

Question: And the Ki [3]?
Answer: The Ki was “Not Active”.

Question: And the IC50 [4]?
Answer: Its IC50 is “Not Active”.

Question: And the Ki [4]?
Answer: The Ki was “Not Active”.

Question: And the IC50 [5]?
Answer: The IC50 was “Not Active”.

Question: And the Ki [5]?
Answer: The Ki was “Not Active”.

Question: Which results are given for SODIUM ORTHOVANAD?
Answer: IC50 (Glycine receptor): Not Active; Ki (Glycine receptor): Not Active; IC50 (Adenosine receptor A1): Not Active; Ki (Adenosine receptor A1): Not Active; IC50 [1]: Not Active; Ki [1]: Not Active; IC50 [2]: Not Active; Ki [2]: Not Active; IC50 [3]: Not Active; Ki [3]: Not Active; IC50 [4]: Not Active; Ki [4]: Not Active; IC50 [5]: Not Active; Ki [5]: Not Active
